According to PubChem BioAssay AID248 (DTP/NCI, 2004):
Values joined by “and” are separate entries in the source; they are usually repeats but may differ in a detail not shown here. Equal values may be shown once. Toxic doses and inconclusive results are not listed. No stated cut-off is given here; in the data, active means T/C of 150% or more; inactive means T/C below 125%.

Tested on: L1210 leukemia ip in BDF1 mice, survival T/C
Test: NCI In Vivo Anticancer Drug Screen. Data for tumor model L1210 Leukemia (intraperitoneal) in B6D2F1 (BDF1) mice
Conditions: endpoint: mean survival time, higher = longer survival
Outline: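 In this screen, tumor-bearing mice given compound are compared to those given vehicle, and their survival values are reported as a treated-to-control quotient.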

[1] = dose: 100.0 mg/kg/injection, schedule: Q01DX009 (ip), vehicle: saline with Tween-80
[2] = dose: 200.0 mg/kg/injection, schedule: Q01DX009 (ip), vehicle: saline with Tween-80
[3] = dose: 50.0 mg/kg/injection, schedule: Q04DX002 (ip), vehicle: Klucel (hydroxypropylcellulose) (HPC)
[4] = dose: 100.0 mg/kg/injection, schedule: Q01DX001 (ip), vehicle: carboxymethylcellulose (CMC)
[5] = dose: 100.0 mg/kg/injection, schedule: Q04DX002 (ip), vehicle: Klucel (hydroxypropylcellulose) (HPC)
[6] = dose: 200.0 mg/kg/injection, schedule: Q01DX001 (ip), vehicle: carboxymethylcellulose (CMC)
[7] = dose: 200.0 mg/kg/injection, schedule: Q04DX002 (ip), vehicle: Klucel (hydroxypropylcellulose) (HPC)
[8] = dose: 400.0 mg/kg/injection, schedule: Q04DX002 (ip), vehicle: Klucel (hydroxypropylcellulose) (HPC)
[9] = dose: 50.0 mg/kg/injection, schedule: Q01DX009 (ip), vehicle: Klucel (hydroxypropylcellulose) (HPC)
[10] = dose: 100.0 mg/kg/injection, schedule: Q01DX009 (ip), vehicle: Klucel (hydroxypropylcellulose) (HPC)
[11] = dose: 200.0 mg/kg/injection, schedule: Q01DX009 (ip), vehicle: Klucel (hydroxypropylcellulose) (HPC)
[12] = dose: 100.0 mg/kg/injection, schedule: Q01DX001 (ip), vehicle: saline
[13] = dose: 200.0 mg/kg/injection, schedule: Q01DX001 (ip), vehicle: saline
[14] = dose: 400.0 mg/kg/injection, schedule: Q01DX001 (ip), vehicle: saline
[15] = dose: 100.0 mg/kg/injection, schedule: Q04DX003 (ip), vehicle: Klucel (hydroxypropylcellulose) (HPC)
[16] = dose: 200.0 mg/kg/injection, schedule: Q04DX003 (ip), vehicle: Klucel (hydroxypropylcellulose) (HPC)
[17] = dose: 400.0 mg/kg/injection, schedule: Q01DX009 (ip), vehicle: Klucel (hydroxypropylcellulose) (HPC)
[18] = dose: 400.0 mg/kg/injection, schedule: Q04DX003 (ip), vehicle: Klucel (hydroxypropylcellulose) (HPC)
[19] = dose: 12.5 mg/kg/injection, schedule: Q01DX009 (ip), vehicle: Klucel (hydroxypropylcellulose) (HPC)
[20] = dose: 25.0 mg/kg/injection, schedule: Q01DX009 (ip), vehicle: Klucel (hydroxypropylcellulose) (HPC)

Measured: T/C

Cc1ccc(CNc2cc(C)ccn2)cc1
inactive: dose: 50.0 mg/kg/injection, schedule: Q01DX009 (ip), vehicle: saline with Tween-80 96 % of control | [1] 101 % of control | [2] 101 % of control

O=[N+]([O-])c1ccc(O)c2ncccc12
inactive: dose: 25.0 mg/kg/injection, schedule: Q04DX002 (ip), vehicle: Klucel (hydroxypropylcellulose) (HPC) 102 % of control | dose: 50.0 mg/kg/injection, schedule: Q01DX001 (ip), vehicle: carboxymethylcellulose (CMC) 101 % of control | dose: 50.0 mg/kg/injection, schedule: Q01DX015 (ip), vehicle: saline 97 % of control | [3] 94 % of control and 102 % of control | [4] 109 % of control | dose: 100.0 mg/kg/injection, schedule: Q01DX015 (ip), vehicle: saline 93 % of control | [5] 94 % of control (2×) and 95 % of control | [6] 95 % of control | dose: 200.0 mg/kg/injection, schedule: Q01DX015 (ip), vehicle: saline 95 % of control | [7] 110 % of control | dose: 400.0 mg/kg/injection, schedule: Q01DX015 (ip), vehicle: saline 91 % of control | [8] 91 % of control

COc1ccc(/C=N\NC(=O)c2ccncc2)cc1OC
inactive: [3] 101 % of control | [5] 106 % of control | [7] 109 % of control | [8] 103 % of control

CCOC(C)C(/C=N/Nc1ccccc1)=N\Nc1ccccc1 (configuration not stated)
inactive: dose: 15.0 mg/kg/injection, schedule: Q01DX Z (ip), vehicle: carboxymethylcellulose (CMC) 98 % of control | dose: 30.0 mg/kg/injection, schedule: Q01DX Z (ip), vehicle: carboxymethylcellulose (CMC) 97 % of control | dose: 60.0 mg/kg/injection, schedule: Q01DX Z (ip), vehicle: carboxymethylcellulose (CMC) 97 % of control | dose: 120.0 mg/kg/injection, schedule: Q01DX Z (ip), vehicle: carboxymethylcellulose (CMC) 92 % of control

COc1ccccc1C(=O)N/N=C/c1cccc2ccccc12
inactive: [1] 114 % of control | dose: 100.0 mg/kg/injection, schedule: Q04DX003 (ip), vehicle: saline with Tween-80 103 % of control | [2] 105 % of control | dose: 200.0 mg/kg/injection, schedule: Q04DX003 (ip), vehicle: saline with Tween-80 96 % of control | dose: 400.0 mg/kg/injection, schedule: Q01DX009 (ip), vehicle: saline with Tween-80 107 % of control | dose: 400.0 mg/kg/injection, schedule: Q04DX003 (ip), vehicle: saline with Tween-80 94 % of control

CC1Nc2ccccc2N2C(=O)CCC12 (configuration not stated)
inactive: [9] 106 % of control | [10] 103 % of control | [11] 106 % of control

O=C1CC(c2cccc(S(=O)(=O)O)c2)=NN1c1ccc([N+](=O)[O-])cn1
inactive: dose: 12.5 mg/kg/injection, schedule: Q04DX003 (ip), vehicle: saline 95 % of control | dose: 25.0 mg/kg/injection, schedule: Q04DX003 (ip), vehicle: saline 95 % of control | dose: 50.0 mg/kg/injection, schedule: Q04DX003 (ip), vehicle: saline 95 % of control

NCC(N)C(=O)O (configuration not stated)
inactive: [12] 94 % of control | [13] 97 % of control | [14] 94 % of control

O=C(c1ccc2cc(Cl)c3ccccc3c2c1)C(Br)CBr (configuration not stated)
inactive: dose: 55.0 mg/kg/injection, schedule: Q01DX Z (ip), vehicle: methylcellulose (MC) 88 % of control | dose: 83.0 mg/kg/injection, schedule: Q01DX Z (ip), vehicle: methylcellulose (MC) 93 % of control | dose: 125.0 mg/kg/injection, schedule: Q01DX Z (ip), vehicle: methylcellulose (MC) 93 % of control

Cc1ccc(C)c(NC(=O)NC(C)C)c1
inactive: [10] 94 % of control | [15] 96 % of control | [11] 94 % of control | [16] 91 % of control | [17] 91 % of control | [18] 89 % of control

COc1ccc(OC)c(NC(=O)Nc2cccc(C(F)(F)F)c2)c1
inactive: dose: 25.0 mg/kg/injection, schedule: Q01DX009 (ip), vehicle: carboxymethylcellulose (CMC) 97 % of control and 87 % of control | dose: 50.0 mg/kg/injection, schedule: Q01DX009 (ip), vehicle: carboxymethylcellulose (CMC) 112 % of control and 88 % of control | [4] 103 % of control and 107 % of control | dose: 100.0 mg/kg/injection, schedule: Q01DX009 (ip), vehicle: carboxymethylcellulose (CMC) 87 % of control | dose: 100.0 mg/kg/injection, schedule: Q04DX002 (ip), vehicle: carboxymethylcellulose (CMC) 95 % of control and 89 % of control | dose: 100.0 mg/kg/injection, schedule: Q04DX003 (ip), vehicle: carboxymethylcellulose (CMC) 103 % of control and 87 % of control | [6] 96 % of control and 89 % of control | dose: 200.0 mg/kg/injection, schedule: Q04DX002 (ip), vehicle: carboxymethylcellulose (CMC) 92 % of control and 99 % of control | dose: 200.0 mg/kg/injection, schedule: Q04DX003 (ip), vehicle: carboxymethylcellulose (CMC) 93 % of control and 87 % of control | dose: 400.0 mg/kg/injection, schedule: Q01DX001 (ip), vehicle: carboxymethylcellulose (CMC) 94 % of control and 100 % of control | dose: 400.0 mg/kg/injection, schedule: Q01DX009 (ip), vehicle: carboxymethylcellulose (CMC) 86 % of control | dose: 400.0 mg/kg/injection, schedule: Q04DX002 (ip), vehicle: carboxymethylcellulose (CMC) 86 % of control | dose: 400.0 mg/kg/injection, schedule: Q04DX003 (ip), vehicle: carboxymethylcellulose (CMC) 90 % of control

CN(C(=O)Cc1ccccc1)c1ccccc1[N+](=O)[O-]
inactive: dose: 50.0 mg/kg/injection, schedule: Q01DX001 (ip), vehicle: saline 98 % of control | [12] 104 % of control | [13] 95 % of control | [14] 101 % of control

OCC1OC([Se])C(O)C(O)C1O.[CH3][Sb][CH3] (configuration not stated)
inactive: dose: 3.13 mg/kg/injection, schedule: Q01DX009 (ip), vehicle: Klucel (hydroxypropylcellulose) (HPC) 99 % of control | dose: 6.25 mg/kg/injection, schedule: Q01DX009 (ip), vehicle: Klucel (hydroxypropylcellulose) (HPC) 96 % of control and 98 % of control | [19] 99 % of control and 104 % of control | [20] 91 % of control

CCCOc1ccc(C2=NCC(C)S2)c(C)c1 (configuration not stated)
inactive: [19] 94 % of control | [20] 91 % of control | [9] 98 % of control and 90 % of control | dose: 100.0 mg/kg/injection, schedule: Q01DX005 (ip), vehicle: Klucel (hydroxypropylcellulose) (HPC) 101 % of control | dose: 200.0 mg/kg/injection, schedule: Q01DX005 (ip), vehicle: Klucel (hydroxypropylcellulose) (HPC) 89 % of control

Cc1ccc(S(=O)(=O)NCCCOS(=O)(=O)c2ccc(C)cc2)cc1
inactive: [10] 104 % of control | dose: 100.0 mg/kg/injection, schedule: Q04DX003 (ip), vehicle: acetone 97 % of control | [11] 93 % of control | dose: 200.0 mg/kg/injection, schedule: Q04DX003 (ip), vehicle: acetone 95 % of control | [17] 93 % of control | dose: 400.0 mg/kg/injection, schedule: Q04DX003 (ip), vehicle: acetone 94 % of control

COC(=O)c1cc(Cl)c(C(=O)OC)cc1Cl
inactive: [15] 90 % of control | [16] 98 % of control | [18] 102 % of control
